Results: US12202805B2, “Process for preparing (5S)-{[2-(4-carboxyphenyl)ethyl] |2-(2-{|3-chloro-4'-(trifluoromethyl)biphenyl-4-yl]methoxy}phenyl)ethyl]aminol-5,6,7,8-tetrahydroquinoline-2-carboxylic acid and its crystalline forms for use as pharmaceutically active compound” (Bayer Aktiengesellschaft, priority 2021, dated 2025)

Assays:
[1] = system: Caco-2 cells; test: Caco-2 permeability test; format: in vitro ADME, human; conditions: 2 μM, 2 h at 37° C.
Protocol: E-3. Further Characterization E-3.1 Caco-2 Permeability Test
The in vitro permeation of a test compound across a Caco-2 cell monolayer is a well-established assay system to predict the permeability from the gastro-intestinal tract (1). The permeability of the compounds of the present invention in such Caco-2 cells was determined as described below:
Human caco-2 cells were seeded on 24-well insert plates and were allowed to grow for 14-16 days. For permeability studies, the test compounds were dissolved in DMSO and diluted to the final test concentration of 2 μM with transport buffer [Hanks' Buffered Salt Solution, Gibco/Invitrogen, further supplemented with glucose and HEPES]. For determination of the apical to basolateral permeability (PappA-B), the test compound solution was added to the apical side of the cell monolayer and transport buffer to the basolateral side of the monolayer; for determination of the basolateral to apical permeability (PappB-A), the test compound solution was added to the basolateral side of the cell monolayer and transport buffer to the apical side of the monolayer. Samples were taken from the donor compartment at the beginning of the experiment to confirm mass balance. After an incubation of 2 h at 37° C., samples were taken from both compartments. Samples were analyzed by LC-MS/MS, and the apparent permeability coefficients were calculated. Lucifer Yellow permeability was assayed for each cell monolayer to ensure cell monolayer integrity, and the permeability of Atenolol (low permeability marker) and Sulfasalazine (marker for active excretion) was determined for each batch as quality control.

[2] = system: chronic ovalbumin asthma mice model; test: Chronic ovalbumin asthma mice model; conditions: mouse, in vivo

`O=C(O)c1ccc(CCN(CCc2ccccc2OCc2ccc(-c3ccc(C(F)(F)F)cc3)cc2Cl)[C@H]2CCCc3nc(C(=O)O)ccc32)cc1` [comparative example 11, (5S)-5-{[2-(4-carboxyphenyl)ethyl][2-(2-{[3-chloro-4′-(trifluoromethyl)[biphenyl]-4-yl]methoxy}phenyl)ethyl]amino}-5,6,7,8-tetrahydroquinoline-2-carboxylic acid] was tested. Which efflux ratio [1] did it give?
The efflux ratio was “does not show an efflux ratio”.

And the “effect on airway hyper-responsiveness and inflammation” value [2]?
Its value is “inhibitory effect on airway hyper-responsiveness and inflammation”.
